Values joined by “and” are separate entries in the source; they are usually repeats but may differ in a detail not shown here. Identical values can stand only once.
How the values were obtained:
[1] = system: Rattus norvegicus; conditions: for LD50: acute, oral
[2] = system: Colinus virginianus; conditions: mortality
[3] = system: Tagia sp.; conditions: acute; duration: 14 days; mortality
[4] = system: Apis mellifera; conditions: acute; duration: 48 hours; oral; unspecified; mortality
[5] = system: Mus musculus; conditions: acute, oral, mortality
[6] = system: Oncorhynchus mykiss
[7] = system: Anas platyrhynchos; conditions: short-term; oral; feed; mortality
[8] = system: Daphnia magna; conditions: chronic/long-term; duration: 21 days; reproduction
[9] = system: Canidae; conditions: oral, Dog Other, clinical chemistry
[10] = system: Coturnix coturnix; conditions: acute, oral, mortality
[11] = system: Typhlodromus pyri; test: LR50; higher = less toxic; conditions: not reported; mortality
[12] = system: Aphidius rhopalosiphi; test: LR50; higher = less toxic; conditions: not reported; mortality

SMILES: Cc1nnc(-c2ccccc2)c(=O)n1N [Metamitron]
- LD50 ([1]; F, mortality): 1480 mg/kg-day
- LD50 ([1]; M, mortality): 1180 mg/kg-day
- LD50 ([1]; mortality): < 2000 mg/kg-day and 4320 mg/kg-day
- NOAEL ([1]; chronic, F, mortality): 53.8 mg/kg-day
- NOAEL ([1]; chronic, M, mortality): 36.4 mg/kg-day
- NOAEL ([1]; reproduction developmental, body weight): 10 mg/kg-day
- LD50 ([2]; acute, oral, diet): > 904 mg/kg-day
- NOAEL ([2]; reproduction developmental): 81.5 mg/kg-day
- LC50 [3]: 914 mg/kg
- LD50 [4]: > 97.2 µg/piece
- LD50 ([5]; M): 691 mg/kg-day
- LD50 [5]: 644 mg/kg-day
- LC50 ([6]; acute, duration: 96 hours, mortality): > 190 µg/mL
- NOEC ([6]; chronic/long-term, duration: 21 days, growth): 7 mg/L
- LD50 [7]: > 1590 mg/kg-day
- NOEC [8]: 10 mg/L
- NOAEL ([9]; chronic, duration: 2 years, diet): 3 mg/kg-day
- NOAEL ([9]; subchronic, duration: 90 days): 3.6 mg/kg-day
- LD50 ([10]; F): 1300 mg/kg-day
- LD50 ([10]; M): 1360 mg/kg-day
- LR50 [11]: 14400 g/ha
- LR50 [12]: 14400 g/ha

Reference: EPA's ToxValDB 9.5 (doi:10.2903/j.efsa.2008.185r)
